Measured values reported in US11230526B1, “Cylcoalkenyl derivatives useful as agonists of the GPR120 and/or GPR40 receptors” (Janssen Pharmaceutica NV, priority 2018, dated 2022).

How the values were obtained:
Human GPR120 short form = target: T1, Human GPR120 short form (Homo sapiens, UniProt Q5NUL3); test: Human GPR120 calcium flux assay, Procedure Calcium B (4200 cells/well); type: cell-based
T1 construct: expressed in transfected cells
T1 sequence (Q5NUL3 1-361): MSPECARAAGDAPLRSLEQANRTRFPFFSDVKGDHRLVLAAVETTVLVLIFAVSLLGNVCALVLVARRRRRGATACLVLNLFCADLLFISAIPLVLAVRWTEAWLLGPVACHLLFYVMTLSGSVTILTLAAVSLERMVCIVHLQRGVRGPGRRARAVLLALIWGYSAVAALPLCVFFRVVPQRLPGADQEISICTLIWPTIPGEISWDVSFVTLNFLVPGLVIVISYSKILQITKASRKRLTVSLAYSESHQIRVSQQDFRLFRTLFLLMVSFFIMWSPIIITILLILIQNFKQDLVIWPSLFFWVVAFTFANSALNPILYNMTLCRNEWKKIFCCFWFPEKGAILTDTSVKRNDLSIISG
Protocol: Human GPR120 in Calcium Flux Assay
These cells are first loaded with the Ca^+2 sensitive dye, Fluo-4 NW. Upon stimulation, intracellular released Ca^+2 can bind to the dye and alter its fluorescence intensity. This increase in fluorescence signal, and thus the flux in intracellular [Ca^2+], is detected and quantitated by fluorescence imaging using a FLIPR reader. The effect of the agonist is measured as a function of concentration and used to calculate an EC50 based upon a response curve.
In this procedure 4200 cells/well were employed.
A Human GPR120 clone (Genbank accession number NM_001195755.1) was placed into the pcDNA3.1 mammalian expression vector carrying the neomycin resistance gene. A stable mammalian cell was generated by placing the above clone into a HEK293 background. […] Cells were split 2 times a week to keep the cells in the log-phase growth. […]
The assay was performed on a FLIPR plate reader using the following parameters. Baseline was read for 10 seconds at 1 sec intervals. The program was set to transfer 10 μL of ligand from compound plate to cell plate after baseline reading. Aspiration was executed at: 10 μL/sec speed, 4.6 μL height, Dispensing was executed at: 30 μL/sec speed, 45 μL height. After compound addition, each well was read for 300 sec, with measurements collected at 1 sec intervals.
The kinetic data from the FLIPR was based upon a 5 minute window for data collection. The fluorescence of each sample well was used for individual calculations of a normalized RFU value, which was defined as maximum response minus the minimum response. The normalized fluorescence reading (RFU) was calculated as follows: RFU=Fmax−Fmin
The Fitting Equation was: Y=Bottom+(Top-Bottom)/(1+10^((Log EC50−X)*HillSlope)), where X is the log of the concentration and Y is the response.

human GPR40 = target: T2, human GPR40 (Homo sapiens, UniProt O14842); test: GPR40 calcium flux assay, human GPR40; type: cell-based; details: HEK293 cells stably expressing GPR40; table does not say human or rat
T2 construct: expressed in transfected cells
T2 sequence (O14842 whole entry): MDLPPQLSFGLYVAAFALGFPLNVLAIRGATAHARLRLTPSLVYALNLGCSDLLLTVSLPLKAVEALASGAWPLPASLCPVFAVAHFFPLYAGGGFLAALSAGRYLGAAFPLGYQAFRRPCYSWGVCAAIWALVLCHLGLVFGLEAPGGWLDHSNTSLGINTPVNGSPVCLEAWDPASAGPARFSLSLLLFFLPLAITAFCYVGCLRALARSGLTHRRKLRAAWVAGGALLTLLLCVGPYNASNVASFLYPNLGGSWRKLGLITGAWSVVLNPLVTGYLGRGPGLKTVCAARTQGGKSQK
Protocol: Compounds were tested in a calcium flux assay using transfected HEK293 cells stably expressing either human GPR40 or rat GPR40. Human GPR40 expressing cells were cultured in DMEM−High Glucose media supplemented with 10% fetal bovine serum, 1×L-Glutamine, 1×Penicillin/Streptomycin and 500 μg/mL G418. Rat GPR40 expressing cells were cultured in DMEM−High Glucose media supplemented with 10% fetal bovine serum and 1 μg/mL puromycin. Cells were plated into poly-D-lysine coated 384-well plates and cultured overnight in a 37° C. humidified tissue culture incubator under 5% CO2/[…] atmosphere.
On the day of the experiment, the culture media was replaced with assay buffer (HBSS, 20 mM HEPES, 0.1% BSA) and the cells incubated at 37° C. for 1 h. Calcium-sensitive fluorescent dye (Fluo 8 No-Wash Calcium Dye, ABD Bioquest) was then added and the cells incubated for another 30 min at 37° C. followed by 15 min at room temperature while protected from the light. The cell plate and a plate of diluted compounds of Formula (I) were loaded into a fluorescent plate reader that added compounds onto the cells while measuring the fluorescence intensity of each well. The plate reader recorded fluorescence intensity at 1 second intervals for 8 min and provided the data for analysis in an Excel format. EC50 values were calculated using Prism (GraphPad) software.

| SMILES | EC50 (Human GPR120 short form) [nM] | EC50 (human GPR40) [nM] |
| --- | --- | --- |
| Cc1cc(Cl)ccc1C1=C(COc2ccc(CCC(=O)O)c(C(F)(F)F)c2)CCC1 [Compound 243, 3-[4-[[2-(4-chloro-2-methyl-phenyl)cyclopenten-1-yl]methoxy]-2-(trifluoromethyl)phenyl]Propanoic Acid] | > 5000 | 90 |
| O=C(O)CCc1ccc(OCC2=C(C3CCCC3)CCCCC2)cc1F [Compound 613, 3-[4-[(2-cyclopentylcyclohepten-1-yl)methoxy]-2-fluoro-phenyl]Propanoic Acid] | 436 | 225 |
| O=C(O)CCc1ccc(OCC2=C(C3CC4CCC3C4)CCCC2)cc1Cl (stereo not shown) [Compound 593, 3-[2-chloro-4-[(2-norbornan-2-ylcyclohexen-1-yl)methoxy]phenyl]Propanoic Acid] | > 5000 | 1300 |
| O=C(O)CCc1ccc(OCC2=C(C3CCCCC3)CCC2)cc1C(F)(F)F [Compound 386, 3-[4-[(2-cyclohexylcyclopenten-1-yl)methoxy]-2-(trifluoromethyl)phenyl]Propanoic Acid] | 1700 | 92 |
| Cc1cc(OCC2=C(c3ccc(Cl)cc3F)CCC2)c(F)cc1CCC(=O)O [Compound 281, 3-[4-[[2-(4-chloro-2-fluoro-phenyl)cyclopenten-1-yl]methoxy]-5-fluoro-2-methyl-phenyl]Propanoic Acid] | 314 | 474 |
| Cc1cc(OCC2=C(c3ccccc3)C(C)CC2)c(F)cc1CCC(=O)O (stereo not shown) [Compound 323, 3-[5-fluoro-2-methyl-4-[(3-methyl-2-phenyl-cyclopenten-1-yl)methoxy]phenyl]Propanoic Acid] | 1070 | 2230 |
| Cc1ccc(C2=C(COc3ccc(CCC(=O)O)c(C(F)(F)F)c3)CCC2)cc1-c1ccccc1 [Compound 292, 3-[4-[[2-(4-methyl-3-phenyl-phenyl)cyclopenten-1-yl]methoxy]-2-(trifluoromethyl)phenyl]Propanoic Acid] | > 5000 | 1720 |
| CC(C)C1=C(COc2ccc(CCC(=O)O)cc2)CCCC1 [Compound 585, 3-[4-[(2-isopropylcyclohexen-1-yl)methoxy]phenyl]Propanoic Acid] | 1650 | 2420 |
| O=C(O)CCc1ccc(OCC2=C(Cc3ccc(F)cc3)CCC2)cc1C(F)(F)F [Compound 353, 3-[4-[[2-[(4-fluorophenyl)methyl]cyclopenten-1-yl]methoxy]-2-(trifluoromethyl)phenyl]Propanoic Acid] | 1330 | 46 |
| Cc1ccc(CC2=C(COc3cc(C)c(CCC(=O)O)cc3F)CCC2)cc1 [Compound 347, 3-[5-fluoro-2-methyl-4-[[2-(p-tolylmethyl)cyclopenten-1-yl]methoxy]phenyl]Propanoic Acid] | 1800 | 897 |
| O=C(O)CCc1cc(Cl)c(OCC2=C(c3ccc(F)cc3)CC(F)(F)C2)c(Cl)c1 [Compound 205, 3-[3,5-dichloro-4-[[4,4-difluoro-2-(4-fluorophenyl)cyclopenten-1-yl]methoxy]phenyl]Propanoic Acid] | 465 | > 5000 |
| O=C(O)CCc1ccc(OCC2=C(c3ccc(F)cc3)CCC2)cc1Cl [Compound 260, 3-[2-chloro-4-[[2-(4-fluorophenyl)cyclopenten-1-yl]methoxy]phenyl]Propanoic Acid] | 541 | 488 |
| Cc1ccc(C2=C(COc3ccc(CCC(=O)O)c(C(F)(F)F)c3)CCC2)c(-c2ccccc2)c1 [Compound 291, 3-[4-[[2-(4-methyl-2-phenyl-phenyl)cyclopenten-1-yl]methoxy]-2-(trifluoromethyl)phenyl]Propanoic Acid] | > 5000 | 1420 |
| Cc1cc(CCC(=O)O)ccc1OCC1=C(c2ccco2)CCC1 [Compound 208, 3-[4-[[2-(2-furyl)cyclopenten-1-yl]methoxy]-3-methyl-phenyl]Propanoic Acid] | 185 | > 5000 |
| Cc1ccc(F)c(C2=C(COc3cc(C)c(CCC(=O)O)cc3F)CCC2)c1 [Compound 340, 3-[5-fluoro-4-[[2-(2-fluoro-5-methyl-phenyl)cyclopenten-1-yl]methoxy]-2-methyl-phenyl]Propanoic Acid] | 743 | 944 |
| CCCCC1=C(COc2ccc(CCC(=O)O)cc2)CCCC1 [Compound 588, 3-[4-[(2-butylcyclohexen-1-yl)methoxy]phenyl]Propanoic Acid] | 1140 | 1920 |
| Cn1cc(C2=C(COc3c(F)cc(CCC(=O)O)cc3F)CC(F)(F)CC2)cn1 [Compound 544] | 1350 | > 5000 |
| C=Cc1cc(OCC2=C(C3CCCC3)CCC2)ccc1CCC(=O)O [Compound 442, 3-[4-[(2-cyclopentylcyclopenten-1-yl)methoxy]-2-vinyl-phenyl]Propanoic Acid] | 334 | 48 |
| CSCCCCc1cc(CCC(=O)O)ccc1OCC1=C(c2ccc(Cl)cc2)CCC1 [Compound 198, 3-[4-[[2-(4-chlorophenyl)cyclopenten-1-yl]methoxy]-3-(4-methylsulfanylbutyl)phenyl]Propanoic Acid] | 1290 | 2140 |
| CC1(C)CCC(C2CCCC2)=C(COc2ccc(CCC(=O)O)c(Cl)c2)C1 [Compound 605, 3-[2-chloro-4-[(2-cyclopentyl-5,5-dimethyl-cyclohexen-1-yl)methoxy]phenyl]Propanoic Acid] | 1170 | 852 |
| CCCC#CC1=C(COc2ccc(CCC(=O)O)cc2)CCC1 [Compound 233] | 752 | 2930 |
| CC1(C)CCC(C2CCCC2)=C(COc2ccc(CCC(=O)O)c(C(F)(F)F)c2)C1 [Compound 604, 3-[4-[(2-cyclopentyl-5,5-dimethyl-cyclohexen-1-yl)methoxy]-2-(trifluoromethyl)phenyl]Propanoic Acid] | 2010 | 1500 |
| Cc1cc(OCC2=C(C3CCCC3)CCC2)ccc1CCC(=O)O [Compound 422, 3-[4-[(2-cyclopentylcyclopenten-1-yl)methoxy]-2-methyl-phenyl]Propanoic Acid] | 177 | 48 |
| CC(C)CC1=C(COc2ccc(CCC(=O)O)c(C(F)(F)F)c2)CC(F)(F)C1 [Compound 381, 3-[4-[(4,4-difluoro-2-isobutyl-cyclopenten-1-yl)methoxy]-2-(trifluoromethyl)phenyl]Propanoic Acid] | 1650 | 150 |
| N#Cc1cc(OCC2=C(c3ccc(F)cc3)CCC2)ccc1CCC(=O)O [Compound 237, 3-[2-cyano-4-[[2-(4-fluorophenyl)cyclopenten-1-yl]methoxy]phenyl]Propanoic Acid] | > 5000 | 923 |
| O=C(O)CCc1ccc(OCC2=C(c3ccccc3)CC(F)(F)C2)cc1C(F)(F)F [Compound 241] | 173 | 222 |
| O=C(O)CCc1ccc(OCC2=C(c3cc(Cl)ccc3F)CCC2)cc1Cl [Compound 342, 3-[2-chloro-4-[[2-(5-chloro-2-fluoro-phenyl)cyclopenten-1-yl]methoxy]phenyl]Propanoic Acid] | 515 | 322 |
| O=C(O)CCc1ccc(OCC2=C(c3ccccc3Cl)CCC2)cc1C(F)(F)F [Compound 313, 3-[4-[[2-(2-chlorophenyl)cyclopenten-1-yl]methoxy]-2-(trifluoromethyl)phenyl]Propanoic Acid] | 855 | 191 |
| Cc1cc(OCC2=C(Cc3ccccc3)CCC2)c(F)cc1CCC(=O)O [Compound 314, 3-[4-[(2-benzylcyclopenten-1-yl)methoxy]-5-fluoro-2-methyl-phenyl]Propanoic Acid] | 765 | 461 |
